From patent US20200277556A1, “USE OF AN ADDITIVE TO IMPROVE THE QUALITY OF BEVERAGES BASED ON PLANT MUSTS” (OENOTROPIC INNOVATION, priority 2017, published 2020)

System: Wine Proteins
Assay: Effect of different cofactors on the activity of bromelain on wine, SDS PAGE
Assay type: biochemical
Details: CaCl2 as cofactor of bromelain; data not presented
Experimental: Cysteine is known to improve the activity of bromelain. […] To test the relevance of using methionine and glutathione as cofactors of a cysteine protease, the inventors compared the effect of these cofactors to the effect of cysteine on the activity of bromelain in wine. To this end, the following protocol has been implemented: • Wine: Gewurztraminer type with a pH of 3.8; • Add 10 mM of cysteine, glutathione or methionine, for 3 wine samples; • Weigh four times 8 mg of the pre-purified extract obtained from the sequence of steps 1, 2 and 4 of the above method; • Dissolve each pre-purified extract in wine, wine in the presence of cysteine, wine in the presence of glutathione and wine in the presence of methionine; • Leave in contact for 16 hours, with the plate stirring at 80 rpm and at room temperature; • Take 60 μl of the supernatant; • Add 20 μl of Laemmli 4×; • Place 50 μl on SDS PAGE gel.

[Ca+2].[Cl-].[Cl-] [CaCl2, calcium chloride]
effect on the hydrolysis of wine proteins: positive effect
